# Laboratory results from patent US11690850B2, “Inhibitors of receptor interacting protein kinase I for the treatment of disease” (Board of Regents, The University of Texas System, priority 2019, dated 2023).
# Assays:
# RIPK1 = RIPK1 (Homo sapiens (Human), UniProt Q13546); assay: ADP-Glo Kinase Assay; type: biochemical; settings: 5 nM RIPK1 protein, 50 μM ATP, 6 hr reaction, average value across multiple runs
# In short: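 ADP formed from ATP is measured by ADP-Glo luminescence with 5 nM RIPK1, preincubated 10 min with compound, then 50 μM ATP for 6 h. Buffer is 50 mM HEPES pH 7.5, 50 mM NaCl, 30 mM MgCl2, 1 mM DTT, 0.05% BSA, 0.02% CHAPS. IC50 comes from a four-parameter fit, averaged over runs.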
# [1] = system: human monocytic cell line U937; assay: Human U937 Cellular Necroptosis Assay; type: cell-based; settings: U-937; U937 cells stimulated with 25 ng/mL human TNFalpha and 25 μM z-VAD-FMK, 22 hr, viability by Cell Titer-Glo 2.0; average value across multiple runs; read-out: hU937 IC50
# Description: Human U937 Cellular Necroptosis Assay
# The human monocytic cell line U937 (CRL-1593.2) was purchased from ATCC. The cells were routinely maintained in RPMI-1640 Medium (Gibco, Catalog #11875-093) supplemented with 10% heat inactivated fetal bovine serum (Gibco, Catalog #16140-071), 100 units/mL penicillin and 100 μg/mL streptomycin (Gibco, Catalog #15140-122), in a humidified incubator (37° C., 5% CO2). For the assay, cells were resuspended in RPMI-1640 phenol red free Media (Gibco, Catalog #11835-030) supplemented with 10% fetal bovine serum (Sigma, Catalog #F2442), 100 units/mL penicillin and 100 ug/mL streptomycin. Cells were stimulated with 25 ng/mL human TNFalpha (Cell Sciences, Catalog #CSI15659B) and 25 μM z-VAD-FMK (R&D Systems, Catalog #FMK001) followed by seeding 5000 cells per well in a volume of 40 μL to a white, CulturPlate-384 (Perkin Elmer, Catalog #6007680). Stock solutions of the test compounds were prepared in 100% DMSO (Sigma, Catalog #D2650) and serially diluted 1:3 using 100% DMSO. Compounds were additionally diluted 1:40 in assay medium, and 10 μL/well was transferred to the plate. Following the compound addition the plate was incubated at 37° C. and 5% CO2 for 22 hr. After 22 hr, viability was assessed with the addition of 20 μL of Cell Titer-Glo 2.0 (Promega, Catalog #G9243). The tissue culture plate was shaken on an orbital shaker at 300 RPM for 15 minutes at room temperature in the dark. Luminescence was measured using a PerkinElmer Envision™ plate reader. IC50 values were calculated using a four-parameter logistic curve fit using Genedata Screener software. Results are shown below in Table 5, where the average value across multiple runs is given.
# RIPK1, sequence (Q13546 1-327): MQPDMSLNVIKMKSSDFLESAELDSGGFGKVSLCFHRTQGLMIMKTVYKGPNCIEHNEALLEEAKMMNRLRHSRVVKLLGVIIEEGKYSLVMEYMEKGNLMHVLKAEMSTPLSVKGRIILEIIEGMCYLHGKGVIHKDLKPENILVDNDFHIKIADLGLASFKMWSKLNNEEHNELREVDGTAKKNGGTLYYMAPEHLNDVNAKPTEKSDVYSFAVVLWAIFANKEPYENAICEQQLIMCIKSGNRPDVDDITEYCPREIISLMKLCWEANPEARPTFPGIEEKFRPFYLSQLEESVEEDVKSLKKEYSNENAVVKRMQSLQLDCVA
Structure (SMILES),IC50 (RIPK1) [nM],IC50 [1] [nM]
"Cc1c(Br)c(=O)c(C(=O)NC2CCc3cc(Br)ccc3NC2=O)nn1-c1ccccc1 (stereo not drawn) [Example 43, 5-Bromo-N-(7-bromo-2-oxo-2,3,4,5-tetrahydro-1H-benzo[b]azepin-3-yl)-6-methyl-4-oxo-1-phenyl-1,4-dihydropyridazine-3-carboxamide]",23,48
"Cc1c(Br)c(=O)c(C(=O)NC2CCc3cc(C#N)ccc3NC2=O)nn1-c1ccccc1 (stereo not drawn) [Example 44, 5-Bromo-N-(7-cyano-2-oxo-2,3,4,5-tetrahydro-1H-benzo[b]azepin-3-yl)-6-methyl-4-oxo-1-phenyl-1,4-dihydropyridazine-3-carboxamide]",62,160
"Cc1c(Cl)c(=O)c(C(=O)NC2CCc3cc(Cl)ccc3N(C)C2=O)nn1-c1ccccc1 (stereo not drawn) [Example 45, 5-Chloro-N-(7-chloro-1-methyl-2-oxo-2,3,4,5-tetrahydro-1H-benzo[b]azepin-3-yl)-6-methyl-4-oxo-1-phenyl-1,4-dihydropyridazine-3-carboxamide]",28,72
"Cc1c(C#N)c(=O)c(C(=O)NC2CCc3ccccc3N(C)C2=O)nn1-c1ccccc1 (stereo not drawn) [Example 47, 5-Cyano-6-methyl-N-(1-methyl-2-oxo-2,3,4,5-tetrahydro-1H-benzo[b]azepin-3-yl)-4-oxo-1-phenyl-1,4-dihydropyridazine-3-carboxamide]",72,86
"Cc1cc(=O)c(C(=O)N[C@H]2COc3cccnc3N(C)C2=O)nn1-c1ccccc1 [Example 50, (S)-6-methyl-N-(5-methyl-4-oxo-2,3,4,5-tetrahydropyrido[3,2-b][1,4]oxazepin-3-yl)-4-oxo-1-phenyl-1,4-dihydropyridazine-3-carboxamide]",28,33
"Cc1cc(=O)c(C(=O)N[C@H]2COc3cc(C#N)ccc3N(C)C2=O)nn1-c1ccccc1 [Example 55, (S)-N-(8-cyano-5-methyl-4-oxo-2,3,4,5-tetrahydrobenzo[b][1,4]oxazepin-3-yl)-6-methyl-4-oxo-l-phenyl-1,4-dihydropyridazine-3-carboxamide]",33,54
"Cc1cc(=O)c(C(=O)NC2CCc3ccccc3NC2=O)nn1-c1ccc(C#N)cc1 (stereo not drawn) [Example 56, 1-(4-cyanophenyl)-6-methyl-4-oxo-N-(2-oxo-2,3,4,5-tetrahydro-1H-benzo[b]-azepin-3-yl)-1,4-dihydropyridazine-3-carboxamide]",85,292
"Cc1cc(=O)c(C(=O)N[C@H]2COc3cc(C#N)ccc3N(C)C2=O)nn1-c1ccc(C#N)cc1 [Example 60, (S)-N-(8-cyano-5-methyl-4-oxo-2,3,4,5-tetrahydrobenzo[b][1,4]oxazepin-3-yl)-1-(4-cyanophenyl)-6-methyl-4-oxo-1,4-dihydropyridazine-3-carboxamide]",84.9,424
"Cc1cc(=O)c(C(=O)N[C@H]2COc3cc(C#N)ccc3N(C)C2=O)nn1-c1cccc(F)c1 [Example 61, (S)-N-(8-cyano-5-methyl-4-oxo-2,3,4,5-tetrahydrobenzo[b][1,4]oxazepin-3-yl)-1-(3-fluorophenyl)-6-methyl-4-oxo-1,4-dihydropyridazine-3-carboxamide]",57.4,88
"Cc1ccc(-n2nc(C(=O)N[C@H]3COc4cc(C#N)ccc4N(C)C3=O)c(=O)cc2C)cc1F [Example 62, (S)-N-(8-cyano-5-methyl-4-oxo-2,3,4,5-tetrahydrobenzo[b][1,4]oxazepin-3-yl)-1-(3-fluoro-4-methylphenyl)-6-methyl-4-oxo-1,4-dihydropyridazine-3-carboxamide]",48,67
"O=C(NC1CCc2ccccc2NC1=O)c1nn(-c2ccccc2)c2ccccc2c1=O (stereo not drawn) [Example 70, 4-oxo-N-(2-oxo-2,3,4,5-tetrahydro-1H-benzo[b]azepin-3-yl)-1-phenyl-1,4-dihydrocinnoline-3-carboxamide]",28.9,227

# Now from value to molecule, other results behind:
IC50 (RIPK1) [nM],Structure (SMILES),IC50 [1] [nM]
51,"Cc1cc(=O)c(C(=O)NC2CCc3cc(F)cc(F)c3NC2=O)nn1-c1ccccc1 (stereo not drawn) [Example 48, N-(7,9-difluoro-2-oxo-2,3,4,5-tetrahydro-1H-benzo[b]azepin-3-yl)-6-methyl-4-oxo-1-phenyl-1,4-dihydropyridazine-3-carboxamide]",70
64,"Cc1cc(=O)c(C(=O)NC2CCc3cc(F)cc(F)c3N(C)C2=O)nn1-c1ccccc1 (stereo not drawn) [Example 49, N-(7,9-difluoro-1-methyl-2-oxo-2,3,4,5-tetrahydro-1H-benzo[b]azepin-3-yl)-6-methyl-4-oxo-1-phenyl-1,4-dihydropyridazine-3-carboxamide]",66
1970,"Cc1ccc(-n2nc(C(=O)NC3CCc4ccccc4NC3=O)c(=O)cc2C)cn1 (stereo not drawn) [Example 51, 6-methyl-1-(6-methylpyridin-3-yl)-4-oxo-N-(2-oxo-2,3,4,5-tetrahydro-1H-benzo[b]azepin-3-yl)-1,4-dihydro-pyridazine-3-carboxamide]",1700
652,"Cc1cc(=O)c(C(=O)NC2CCc3ccccc3NC2=O)nn1-c1cccc(C#N)c1 (stereo not drawn) [Example 53, 1-(3-cyanophenyl)-6-methyl-4-oxo-N-(2-oxo-2,3,4,5-tetrahydro-1H-benzo[b]azepin-3-yl)-1,4-dihydropyridazine-3-carboxamide]",591
27,"Cc1cc(=O)c(C(=O)NC2CCc3ccccc3NC2=O)nn1-c1cccc(F)c1 (stereo not drawn) [Example 54, 1-(3-fluorophenyl)-6-methyl-4-oxo-N-(2-oxo-2,3,4,5-tetrahydro-1H-benzo[b]-azepin-3-yl)-1,4-dihydropyridazine-3-carboxamide]",53
20,"Cc1cc(=O)c(C(=O)NC2CCc3ccccc3NC2=O)nn1-c1ccc(F)cc1 (stereo not drawn) [Example 57, 1-(4-fluorophenyl)-6-methyl-4-oxo-N-(2-oxo-2,3,4,5-tetrahydro-1H-benzo[b]-azepin-3-yl)-1,4-dihydropyridazine-3-carboxamide]",41
33.5,"Cc1cc(=O)c(C(=O)NC2CCc3ccccc3NC2=O)nn1-c1ccccc1F (stereo not drawn) [Example 59, 1-(2-fluorophenyl)-6-methyl-4-oxo-N-(2-oxo-2,3,4,5-tetrahydro-1H-benzo[b]-azepin-3-yl)-1,4-dihydropyridazine-3-carboxamide]",74
43.1,"Cc1cccc(-n2nc(C(=O)NC3CCc4ccccc4NC3=O)c(=O)cc2C)c1 (stereo not drawn) [Example 64, 6-methyl-4-oxo-N-(2-oxo-2,3,4,5-tetrahydro-1H-benzo[b]azepin-3-yl)-1-(m-tolyl)-1,4-dihydropyridazine-3-carboxamide]",77.8
47.6,"COc1ccc(-n2nc(C(=O)NC3CCc4ccccc4NC3=O)c(=O)cc2C)cc1 (stereo not drawn) [Example 65, 1-(4-methoxyphenyl)-6-methyl-4-oxo-N-(2-oxo-2,3,4,5-tetrahydro-1H-benzo[b]azepin-3-yl)-1,4-dihydropyridazine-3-carboxamide]",124
30.2,"Cc1cc(=O)c(C(=O)NC2CCc3ccccc3NC2=O)nn1-c1ccc(Cl)cc1 (stereo not drawn) [Example 66, 1-(4-chlorophenyl)-6-methyl-4-oxo-N-(2-oxo-2,3,4,5-tetrahydro-1H-benzo[b]azepin-3-yl)-1,4-dihydro-pyridazine-3-carboxamide]",80.4
68.2,"COc1cccc(-n2nc(C(=O)NC3CCc4ccccc4NC3=O)c(=O)cc2C)c1 (stereo not drawn) [Example 67, 1-(3-methoxyphenyl)-6-methyl-4-oxo-N-(2-oxo-2,3,4,5-tetrahydro-1H-benzo[b]-azepin-3-yl)-1,4-dihydropyridazine-3-carboxamide]",281
57.8,"Cc1cc(=O)c(C(=O)NC2CCc3ccccc3NC2=O)nn1-c1cccc(Cl)c1 (stereo not drawn) [Example 68, 1-(3-chlorophenyl)-6-methyl-4-oxo-N-(2-oxo-2,3,4,5-tetrahydro-1H-benzo[b]-azepin-3-yl)-1,4-dihydropyridazine-3-carboxamide]",142
8500,"Cc1cc(=O)c(C(=O)NC2CCc3cc(F)cc(F)c3NC2)nn1-c1ccccc1 (stereo not drawn) [Example 69, N-(7,9-difluoro-2,3,4,5-tetrahydro-1H-benzo[b]azepin-3-yl)-6-methyl-4-oxo-1-phenyl-1,4-dihydropyridazine-3-carboxamide]",10000
